Results from ChEMBL document CHEMBL4665541, “Search for new therapeutic options for the uncommon pathogen Mycobacterium chimaera: an open drug discovery approach” (Lancet Microbe, 2021).

Legend:
Format in all cases: functional, organism-based
Parameters in all cases: conc 20 uM
[1] = system: Mycobacteroides abscessus; assay: (§1) Inhibition of mycobacterial growth using the resazurin microtitre cell viability assay (REMA), compounds at final concentration of 20 µM (2% v/v DMSO). Hits were classed as compounds that inhibited bacterial growth by 70% or more compared to drug-free controls.; conditions: ATCC19977
[2] = system: Mycobacterium tuberculosis; assay: as §1; conditions: H37Rv
[3] = system: Mycobacterium intracellulare subsp. chimaera; assay: as §1; conditions: NCTC13781

Substance: MMV676571
- Survival [1]: 115%
- Survival [2]: 59.4%
- Survival [3]: 100%

Substance: MMV688755
- Survival [1]: 111%
- Survival [2]: 7.68%
- Survival [3]: 107%

Substance: MMV676442
- Survival [1]: 123%
- Survival [2]: 86.8%
- Survival [3]: 97.1%

Substance: MMV689480
- Survival [1]: 112%
- Survival [2]: 98.5%
- Survival [3]: 95.5%

Substance: MMV687239
- Survival [1]: 108%
- Survival [2]: 68.1%
- Survival [3]: 97.5%

Substance: MMV200748
- Survival [1]: 108%
- Survival [2]: 103%
- Survival [3]: 100%

Substance: MMV019742
- Survival [1]: 103%
- Survival [2]: 96%
- Survival [3]: 97.5%

Substance: MMV004168
- Survival [1]: 114%
- Survival [2]: 90.2%
- Survival [3]: 99.7%

Substance: MMV007133
- Survival [1]: 95%
- Survival [2]: 98.7%
- Survival [3]: 95.2%

Substance: MMV676528
- Survival [1]: 115%
- Survival [2]: 88.7%
- Survival [3]: 102%

Substance: MMV676388
- Survival [1]: 110%
- Survival [2]: 87.4%
- Survival [3]: 101%

Substance: MMV687700
- Survival [1]: 107%
- Survival [2]: 84.1%
- Survival [3]: 88%

Substance: MMV026313
- Survival [1]: 100%
- Survival [2]: 82.9%
- Survival [3]: 86.2%

Substance: MMV009054
- Survival [1]: 105%
- Survival [2]: 98.7%
- Survival [3]: 100%

Substance: MMV001499
- Survival [1]: 125%
- Survival [2]: 93.2%
- Survival [3]: 101%

Substance: MMV676877
- Survival [1]: 107%
- Survival [2]: 90.2%
- Survival [3]: 106%

Substance: MMV688936
- Survival [1]: 106%
- Survival [2]: 82.6%
- Survival [3]: 98.9%

Substance: MMV688514
- Survival [1]: 111%
- Survival [2]: 91.7%
- Survival [3]: 100%

Substance: MMV658988
- Survival [1]: 101%
- Survival [2]: 4.93%
- Survival [3]: 74.9%

Substance: MMV688407
- Survival [1]: 116%
- Survival [2]: 94%
- Survival [3]: 106%

Substance: MMV010576
- Survival [1]: 112%
- Survival [2]: 106%
- Survival [3]: 99%

Substance: MMV676161
- Survival [1]: 114%
- Survival [2]: 80.2%
- Survival [3]: 103%

Substance: MMV019087
- Survival [1]: 111%
- Survival [2]: 74.9%
- Survival [3]: 92.7%

Substance: MMV011903
- Survival [1]: 114%
- Survival [2]: 108%
- Survival [3]: 108%

Substance: MMV1236379
- Survival [1]: 110%
- Survival [2]: 96%
- Survival [3]: 98.4%

Substance: MMV000858
- Survival [1]: 113%
- Survival [2]: 105%
- Survival [3]: 118%

Substance: MMV676555
- Survival [1]: 123%
- Survival [2]: 71.2%
- Survival [3]: 39%

Substance: MMV676476
- Survival [1]: 108%
- Survival [2]: 72.8%
- Survival [3]: 100%

Substance: MMV687170
- Survival [1]: 114%
- Survival [2]: 52.7%
- Survival [3]: 89.9%

Substance: MMV688509
- Survival [1]: 119%
- Survival [2]: 91.6%
- Survival [3]: 110%

Substance: MMV667494
- Survival [1]: 110%
- Survival [2]: 84.1%
- Survival [3]: 95.7%

Substance: MMV688798
- Survival [1]: 103%
- Survival [2]: 102%
- Survival [3]: 95.2%

Substance: MMV687243
- Survival [1]: 113%
- Survival [2]: 87.1%
- Survival [3]: 106%

Substance: MMV687796
- Survival [1]: 99%
- Survival [2]: 9.75%
- Survival [3]: 102%

Substance: MMV688548
- Survival [1]: 115%
- Survival [2]: 91.6%
- Survival [3]: 101%

Substance: MMV676270
- Survival [1]: 108%
- Survival [2]: 82.7%
- Survival [3]: 102%

Substance: MMV676389
- Survival [1]: 113%
- Survival [2]: 51.7%
- Survival [3]: 98.7%

Substance: MMV006741
- Survival [1]: 111%
- Survival [2]: 85.7%
- Survival [3]: 96.4%

Substance: MMV688938
- Survival [1]: 118%
- Survival [2]: 119%
- Survival [3]: 88.3%

Substance: MMV461553
- Survival [1]: 103%
- Survival [2]: 42.2%
- Survival [3]: 7.21%

Substance: MMV688793
- Survival [1]: 114%
- Survival [2]: 89.7%
- Survival [3]: 101%

Substance: MMV019790
- Survival [1]: 107%
- Survival [2]: 90.2%
- Survival [3]: 102%

Substance: MMV688279
- Survival [1]: 110%
- Survival [2]: 32.5%
- Survival [3]: 114%

Substance: MMV1029203
- Survival [1]: 116%
- Survival [2]: 128%
- Survival [3]: 125%

Substance: MMV689437
- Survival [1]: 99%
- Survival [2]: 104%
- Survival [3]: 106%

Substance: MMV687747
- Survival [1]: 108%
- Survival [2]: 63.6%
- Survival [3]: 90.2%

Substance: MMV000063
- Survival [1]: 120%
- Survival [2]: 90.6%
- Survival [3]: 99.8%

Substance: MMV011765
- Survival [1]: 108%
- Survival [2]: 89.2%
- Survival [3]: 70.9%

Substance: MMV676512
- Survival [1]: 100%
- Survival [2]: 6.01%
- Survival [3]: 95.9%

Substance: MMV1198433
- Survival [1]: 98.6%
- Survival [2]: 105%
- Survival [3]: 112%

Substance: MMV688934
- Survival [1]: 112%
- Survival [2]: 101%
- Survival [3]: 104%

Substance: MMV022478
- Survival [1]: 13.3%
- Survival [2]: 3.81%
- Survival [3]: 3.7%

Substance: MMV689061
- Survival [1]: 118%
- Survival [2]: 122%
- Survival [3]: 127%

Substance: MMV688122
- Survival [1]: 111%
- Survival [2]: 2.87%
- Survival [3]: 96.7%

Substance: MMV024443
- Survival [1]: 94.5%
- Survival [2]: 102%
- Survival [3]: 101%

Substance: MMV676526
- Survival [1]: 103%
- Survival [2]: 97.3%
- Survival [3]: 74.8%

Substance: MMV676589
- Survival [1]: 116%
- Survival [2]: 70.1%
- Survival [3]: 89%

Substance: MMV006901
- Survival [1]: 102%
- Survival [2]: 86.8%
- Survival [3]: 120%

Substance: MMV688921
- Survival [1]: 110%
- Survival [2]: 110%
- Survival [3]: 109%

Substance: MMV688797
- Survival [1]: 113%
- Survival [2]: 80.5%
- Survival [3]: 96.5%

Substance: MMV688360
- Survival [1]: 100%
- Survival [2]: 100%
- Survival [3]: 94.3%

Substance: MMV688554
- Survival [1]: 115%
- Survival [2]: 76%
- Survival [3]: 102%

Substance: MMV007638
- Survival [1]: 123%
- Survival [2]: 100%
- Survival [3]: 113%

Substance: MMV688180
- Survival [1]: 116%
- Survival [2]: 94%
- Survival [3]: 101%

Substance: MMV001625
- Survival [1]: 121%
- Survival [2]: 90.5%
- Survival [3]: 101%

Substance: MMV676182
- Survival [1]: 102%
- Survival [2]: 91.4%
- Survival [3]: 104%

Substance: MMV688474
- Survival [1]: 106%
- Survival [2]: 94%
- Survival [3]: 100%

Substance: MMV069458
- Survival [1]: 102%
- Survival [2]: 11.9%
- Survival [3]: 94.1%

Substance: MMV676269
- Survival [1]: 111%
- Survival [2]: 88.8%
- Survival [3]: 104%

Substance: MMV676588
- Survival [1]: 102%
- Survival [2]: 19.7%
- Survival [3]: 76.5%

Substance: MMV675969
- Survival [1]: 93.7%
- Survival [2]: 95.8%
- Survival [3]: 107%

Substance: MMV687696
- Survival [1]: 109%
- Survival [2]: 44.7%
- Survival [3]: 75.7%

Substance: MMV675968
- Survival [1]: 87.6%
- Survival [2]: 15%
- Survival [3]: 1.74%

Substance: MMV063404
- Survival [1]: 108%
- Survival [2]: 33.5%
- Survival [3]: 90.4%

Substance: MMV023183
- Survival [1]: 119%
- Survival [2]: 88.3%
- Survival [3]: 104%

Substance: MMV407539
- Survival [1]: 103%
- Survival [2]: 85.3%
- Survival [3]: 98.9%

Substance: MMV688472
- Survival [1]: 103%
- Survival [2]: 98%
- Survival [3]: 92.3%

Substance: MMV687749
- Survival [1]: 113%
- Survival [2]: 73.3%
- Survival [3]: 96.9%

Substance: MMV020670
- Survival [1]: 110%
- Survival [2]: 99.7%
- Survival [3]: 93%

Substance: MMV000062
- Survival [1]: 109%
- Survival [2]: 18.8%
- Survival [3]: 85.2%

Substance: MMV688796
- Survival [1]: 103%
- Survival [2]: 99.3%
- Survival [3]: 93.4%

Substance: MMV687180
- Survival [1]: 107%
- Survival [2]: 74.6%
- Survival [3]: 105%

Substance: MMV006372
- Survival [1]: 111%
- Survival [2]: 101%
- Survival [3]: 98.4%

Substance: MMV026020
- Survival [1]: 113%
- Survival [2]: 102%
- Survival [3]: 105%

Substance: MMV006239
- Survival [1]: 112%
- Survival [2]: 86.9%
- Survival [3]: 94.8%

Substance: MMV676412
- Survival [1]: 105%
- Survival [2]: 6.6%
- Survival [3]: 92.8%
